Source: US10722478B2, “Methods and compositions for treating fatigue associated with disordered sleep using very low dose cyclobenzaprine” (Tonix Pharma Holdings Limited, priority 2010, dated 2020)

What was measured:
[1] = test system: person with traumatic brain injury; conditions: 5 mg at bedtime; within three weeks
Procedure: A person survived a serious motor vehicle accident with closed head trauma. They underwent six months of physical rehabilitation. […] Because of the spasticity, the neurologist recommended six months of additional physical rehabilitation. […], characterized by both difficulty falling asleep and early-morning awakening. Their neurologist prescribed cyclobenzaprine at a dose of 5 mg at bedtime.

[2] = test system: person diagnosed with multiple sclerosis; conditions: 2 mg then 4 mg at bedtime
Procedure: A person was diagnosed with multiple sclerosis three years ago. […] However, they have noted that throughout the day they have very low energy levels. Their capacity for physical and mental work has declined to the point where they are unable to function at work. They report getting 6 to 8 hours of sleep each night but feels unrefreshed in the morning. […] They began taking cyclobenzaprine initially at a dose of 2 mg at bedtime. Their doctor increased the dose to 4 mg at bedtime. […] Their doctor asks them to assess their level of fatigue on a scale of 1 to 10 before and after cyclobenzaprine treatment.

[3] = test system: FM patients; conditions: response threshold CAPA2+A3(Norm)≤33%; ITT, LOCF; vs. 33% with placebo, p=0.019
Procedure: Therefore, an analysis of sleep EEC CAP was performed that measured subtypes CAP A1, CAP A2, and CAP A3 and Total CAP (or CAP A1+A2+A3). Subtype CAP A1 is associated with sleep maintenance or least sleep instability, and subtypes CAP A2 and A3 are associated with moderate to prominent increases in sleep instability.
Because CAP A2 and A3 are most closely associated with sleep instability^26,27, the sum of CAPA2+CAPA3 rates (CAPA2+A3) was used as an indicator of disordered sleep. CAPA2+A3 was normalized (CAPA2+A3(Norm)) by dividing CAPA2+A3 by the total CAP rate (CAPtotal=CAPA1+CAPA2+CAPA3 rates=CAPA1+A2+A3) and expressed as a percentage. Therefore, CAPA2+A3(Norm)=100*CAPA2+A3/CAPA1+A2+A3 and this reflects the percentage of total CAP that is associated with sleep instability.
To determine whether patients experienced nights with a potential CAP response to treatment, it was necessary to determine an empirical threshold below which CAPA2+A3(Norm) values reflect a night of relatively stable sleep for this population. To determine a threshold for CAPA2+A3(Norm) that could be informative for a potential treatment response, the study CAP data were then evaluated by considering a range of cutoff values for CAPA2+A3(Norm) from ≤10% to ≤50%.
Data were coded such that improvements were positive.

[4] = test system: fibromyalgia patients; conditions: 10 to 40 mg over a 12-week period; cited from earlier work

SMILES: CN(C)CCC=C1c2ccccc2C=Cc2ccccc21 [cyclobenzaprine, 3-(5H-dibenzo[a,d]cyclohepten-5-ylidene)-N,N-dimethyl-1-propanamine]
- level of energy and concentration [1]: markedly better
- sleep [1]: improved substantially
- level of energy during the day ([2]; with each dose): increased
- quality of sleep ([2]; with each dose): improved
- level of fatigue on a scale of 1 to 10 after treatment ([2]; before treatment 9/10): 3/10
- percentage of patients with increased nights of CAP response while on treatment [3]: 72%
- muscle tightness [4]: reduction
- pain score [4]: significantly improved
- quality of sleep [4]: significantly improved
- total number of tender points [4]: reduction
